The results in this text go back to ChEMBL document CHEMBL5465560, “Selectivity Literature for EUbOPEN Chemogenomic Library” (2024).

Test [1] addresses T1, Serine/threonine-protein kinase Sgk3 (Homo sapiens) (UniProt Q96BR1).
T1 sequence (whole entry): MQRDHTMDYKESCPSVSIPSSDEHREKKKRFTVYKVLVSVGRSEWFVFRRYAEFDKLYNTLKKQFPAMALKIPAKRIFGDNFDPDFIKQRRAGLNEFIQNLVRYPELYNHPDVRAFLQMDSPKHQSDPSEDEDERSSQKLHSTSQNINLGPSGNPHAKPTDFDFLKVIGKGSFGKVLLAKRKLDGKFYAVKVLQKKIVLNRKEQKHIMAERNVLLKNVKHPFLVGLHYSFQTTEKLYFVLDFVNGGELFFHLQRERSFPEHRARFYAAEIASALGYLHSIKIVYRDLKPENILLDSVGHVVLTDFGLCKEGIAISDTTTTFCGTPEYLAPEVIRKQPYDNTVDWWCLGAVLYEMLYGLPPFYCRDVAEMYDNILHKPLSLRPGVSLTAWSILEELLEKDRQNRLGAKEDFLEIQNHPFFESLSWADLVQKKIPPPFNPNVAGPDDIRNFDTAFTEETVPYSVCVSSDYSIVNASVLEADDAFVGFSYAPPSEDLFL
As to the kind of experiment: Selectivity interaction (KinomeScan (DiscoverX)) EUB0000595a SGK3. The note with it: at 10 µM.

Test [2] addresses Myosin-IIIa (Homo sapiens) (UniProt Q8NEV4). The test can be described thus: Selectivity interaction (KinomeScan (DiscoverX)) EUB0000607a MYO3A. The note with it: at 10 µM.
The target in test [3] is Dual specificity tyrosine-phosphorylation-regulated kinase 1A (Homo sapiens, UniProt Q13627). The test can be described thus: Selectivity interaction (KinomeScan (DiscoverX)) EUB0001550a DYRK1A. The conditions noted are these: at 1 µM.
Test [4] addresses T2, Mitogen-activated protein kinase kinase kinase 3 (Homo sapiens) (UniProt Q99759).
T2 sequence (whole entry): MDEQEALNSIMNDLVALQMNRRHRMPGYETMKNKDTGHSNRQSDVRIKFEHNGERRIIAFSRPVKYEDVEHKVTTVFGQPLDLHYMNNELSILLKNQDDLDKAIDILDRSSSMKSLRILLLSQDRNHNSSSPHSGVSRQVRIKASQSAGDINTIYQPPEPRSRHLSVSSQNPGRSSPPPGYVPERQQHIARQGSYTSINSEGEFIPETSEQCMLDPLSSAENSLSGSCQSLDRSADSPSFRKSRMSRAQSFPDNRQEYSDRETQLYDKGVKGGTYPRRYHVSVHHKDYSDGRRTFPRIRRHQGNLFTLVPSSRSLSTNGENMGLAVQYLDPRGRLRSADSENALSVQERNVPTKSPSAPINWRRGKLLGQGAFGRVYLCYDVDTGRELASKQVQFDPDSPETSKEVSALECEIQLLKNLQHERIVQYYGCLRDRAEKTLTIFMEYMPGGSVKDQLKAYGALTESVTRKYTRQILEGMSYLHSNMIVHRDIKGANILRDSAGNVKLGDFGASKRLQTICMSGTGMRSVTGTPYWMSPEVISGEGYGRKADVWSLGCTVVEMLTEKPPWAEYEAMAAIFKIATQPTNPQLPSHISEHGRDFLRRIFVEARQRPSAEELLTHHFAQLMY
As to the kind of experiment: Selectivity interaction (ActivX KiNativ screen (kinase selectivity in THP-1 cell lysates)) EUB0000639a MAP3K3. The class given is subcellular. The conditions noted are these: lysate, at 5 µM.

In test [5] the target is DNA (cytosine-5)-methyltransferase 3A (Homo sapiens) (UniProt Q9Y6K1). The note with it: at 1 µM.
In test [6] the target is Cyclin-C/Cyclin-dependent kinase 19 (Homo sapiens) (UniProt Q9BWU1+P24863). As to the kind of experiment: Selectivity interaction (ProQinase) EUB0000171b CDK19. In kind it is protein-complex assay.
Test [7] concerns the target T3, Ephrin type-A receptor 6 (Homo sapiens) (UniProt Q9UF33).
T3 sequence (whole entry): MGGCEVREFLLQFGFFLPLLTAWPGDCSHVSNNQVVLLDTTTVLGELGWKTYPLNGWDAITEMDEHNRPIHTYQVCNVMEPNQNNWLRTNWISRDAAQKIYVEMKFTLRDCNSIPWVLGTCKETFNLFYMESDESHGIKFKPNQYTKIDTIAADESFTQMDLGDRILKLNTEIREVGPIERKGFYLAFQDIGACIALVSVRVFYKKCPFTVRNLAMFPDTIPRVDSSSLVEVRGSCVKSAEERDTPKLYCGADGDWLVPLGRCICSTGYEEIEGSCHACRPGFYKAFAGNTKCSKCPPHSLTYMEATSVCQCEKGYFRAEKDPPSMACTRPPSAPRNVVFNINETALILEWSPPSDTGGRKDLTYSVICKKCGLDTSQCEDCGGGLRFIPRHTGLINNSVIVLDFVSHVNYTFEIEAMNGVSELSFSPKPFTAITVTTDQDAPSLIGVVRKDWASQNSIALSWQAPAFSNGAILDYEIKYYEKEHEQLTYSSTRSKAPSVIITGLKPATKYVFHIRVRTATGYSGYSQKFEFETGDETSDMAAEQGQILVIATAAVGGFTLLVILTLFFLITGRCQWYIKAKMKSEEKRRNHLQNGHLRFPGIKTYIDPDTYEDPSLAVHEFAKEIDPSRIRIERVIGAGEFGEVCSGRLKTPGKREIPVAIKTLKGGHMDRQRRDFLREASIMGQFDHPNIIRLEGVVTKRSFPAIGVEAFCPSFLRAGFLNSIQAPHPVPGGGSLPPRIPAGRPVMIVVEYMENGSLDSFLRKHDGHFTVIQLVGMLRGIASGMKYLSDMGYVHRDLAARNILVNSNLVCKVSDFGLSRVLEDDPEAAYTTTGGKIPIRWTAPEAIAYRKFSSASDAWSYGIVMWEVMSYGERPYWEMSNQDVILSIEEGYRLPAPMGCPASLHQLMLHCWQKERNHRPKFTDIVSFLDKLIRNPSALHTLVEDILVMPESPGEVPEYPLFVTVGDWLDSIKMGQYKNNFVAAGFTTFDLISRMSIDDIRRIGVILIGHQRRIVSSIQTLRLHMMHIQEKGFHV
The test can be described thus: Selectivity interaction (KinomeScan (DiscoverX)) EUB0000618a EPHA6. The conditions noted are these: at 10 µM.

In test [8] the target is Protein kinase C theta type (Homo sapiens, UniProt Q04759). The test can be described thus: Selectivity interaction (Millipore kinase profiler) EUB0000124b PRKCQ. The conditions noted are these: at 10 µM.
Test [9] deals with T4, Mitogen-activated protein kinase 13 (Homo sapiens) (UniProt O15264).
T4 sequence (whole entry): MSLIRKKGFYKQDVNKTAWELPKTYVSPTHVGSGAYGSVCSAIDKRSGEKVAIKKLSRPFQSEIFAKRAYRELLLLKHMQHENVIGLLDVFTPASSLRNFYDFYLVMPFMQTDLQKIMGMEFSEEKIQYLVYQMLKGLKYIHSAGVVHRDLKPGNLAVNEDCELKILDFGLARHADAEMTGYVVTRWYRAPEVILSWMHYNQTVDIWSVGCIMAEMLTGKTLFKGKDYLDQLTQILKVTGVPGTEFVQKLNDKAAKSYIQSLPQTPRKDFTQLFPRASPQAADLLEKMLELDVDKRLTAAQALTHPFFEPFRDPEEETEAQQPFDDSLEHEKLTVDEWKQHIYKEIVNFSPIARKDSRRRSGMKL
The test can be described thus: Selectivity interaction (KinomeScan (DiscoverX)) EUB0000229b MAPK13. The note with it: at 10 µM.

Sequence of Protein kinase C theta type (Q04759 whole entry, looked up): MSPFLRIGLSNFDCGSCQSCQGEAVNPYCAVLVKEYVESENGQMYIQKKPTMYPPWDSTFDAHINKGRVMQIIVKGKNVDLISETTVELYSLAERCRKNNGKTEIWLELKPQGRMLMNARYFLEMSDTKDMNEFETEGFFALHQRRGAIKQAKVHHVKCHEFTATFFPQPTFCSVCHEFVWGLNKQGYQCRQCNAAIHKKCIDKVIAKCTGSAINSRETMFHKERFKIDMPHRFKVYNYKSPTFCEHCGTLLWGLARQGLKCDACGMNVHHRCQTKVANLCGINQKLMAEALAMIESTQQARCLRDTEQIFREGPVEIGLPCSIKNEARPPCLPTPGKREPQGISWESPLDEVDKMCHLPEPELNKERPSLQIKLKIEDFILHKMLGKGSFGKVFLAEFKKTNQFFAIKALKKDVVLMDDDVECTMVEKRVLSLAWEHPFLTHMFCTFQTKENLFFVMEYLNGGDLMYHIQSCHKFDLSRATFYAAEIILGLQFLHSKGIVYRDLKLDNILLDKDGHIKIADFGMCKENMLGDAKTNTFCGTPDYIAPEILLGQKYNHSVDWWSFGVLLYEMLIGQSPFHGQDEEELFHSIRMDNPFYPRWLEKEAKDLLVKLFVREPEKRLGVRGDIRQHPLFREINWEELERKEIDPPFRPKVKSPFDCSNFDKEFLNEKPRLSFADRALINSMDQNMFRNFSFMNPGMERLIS
Sequence of DNA (cytosine-5)-methyltransferase 3A (Homo sapiens) (Q9Y6K1 whole entry, looked up): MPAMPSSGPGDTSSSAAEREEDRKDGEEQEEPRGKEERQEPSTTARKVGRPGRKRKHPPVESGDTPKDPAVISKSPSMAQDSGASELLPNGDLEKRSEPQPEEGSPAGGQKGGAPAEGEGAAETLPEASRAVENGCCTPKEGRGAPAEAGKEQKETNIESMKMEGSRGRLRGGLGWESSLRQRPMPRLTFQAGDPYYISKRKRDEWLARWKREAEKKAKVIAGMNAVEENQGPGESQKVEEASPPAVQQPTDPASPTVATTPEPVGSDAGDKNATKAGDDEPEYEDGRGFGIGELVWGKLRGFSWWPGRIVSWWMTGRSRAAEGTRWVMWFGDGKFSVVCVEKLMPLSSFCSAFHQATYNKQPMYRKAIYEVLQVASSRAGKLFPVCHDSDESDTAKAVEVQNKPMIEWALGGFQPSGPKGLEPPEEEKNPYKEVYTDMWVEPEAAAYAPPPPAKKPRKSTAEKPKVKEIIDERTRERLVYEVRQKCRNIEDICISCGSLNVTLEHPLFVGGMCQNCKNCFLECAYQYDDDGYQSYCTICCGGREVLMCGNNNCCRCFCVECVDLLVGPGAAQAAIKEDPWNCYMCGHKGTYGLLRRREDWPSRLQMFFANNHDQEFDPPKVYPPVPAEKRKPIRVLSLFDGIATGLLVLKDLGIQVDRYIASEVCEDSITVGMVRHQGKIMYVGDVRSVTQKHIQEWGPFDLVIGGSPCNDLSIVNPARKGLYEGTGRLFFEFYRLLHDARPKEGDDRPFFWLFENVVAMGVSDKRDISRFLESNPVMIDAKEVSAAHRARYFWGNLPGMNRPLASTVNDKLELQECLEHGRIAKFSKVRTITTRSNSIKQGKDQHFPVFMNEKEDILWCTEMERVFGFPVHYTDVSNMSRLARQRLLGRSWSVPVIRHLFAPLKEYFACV
Sequence of Myosin-IIIa (Homo sapiens) (Q8NEV4 whole entry): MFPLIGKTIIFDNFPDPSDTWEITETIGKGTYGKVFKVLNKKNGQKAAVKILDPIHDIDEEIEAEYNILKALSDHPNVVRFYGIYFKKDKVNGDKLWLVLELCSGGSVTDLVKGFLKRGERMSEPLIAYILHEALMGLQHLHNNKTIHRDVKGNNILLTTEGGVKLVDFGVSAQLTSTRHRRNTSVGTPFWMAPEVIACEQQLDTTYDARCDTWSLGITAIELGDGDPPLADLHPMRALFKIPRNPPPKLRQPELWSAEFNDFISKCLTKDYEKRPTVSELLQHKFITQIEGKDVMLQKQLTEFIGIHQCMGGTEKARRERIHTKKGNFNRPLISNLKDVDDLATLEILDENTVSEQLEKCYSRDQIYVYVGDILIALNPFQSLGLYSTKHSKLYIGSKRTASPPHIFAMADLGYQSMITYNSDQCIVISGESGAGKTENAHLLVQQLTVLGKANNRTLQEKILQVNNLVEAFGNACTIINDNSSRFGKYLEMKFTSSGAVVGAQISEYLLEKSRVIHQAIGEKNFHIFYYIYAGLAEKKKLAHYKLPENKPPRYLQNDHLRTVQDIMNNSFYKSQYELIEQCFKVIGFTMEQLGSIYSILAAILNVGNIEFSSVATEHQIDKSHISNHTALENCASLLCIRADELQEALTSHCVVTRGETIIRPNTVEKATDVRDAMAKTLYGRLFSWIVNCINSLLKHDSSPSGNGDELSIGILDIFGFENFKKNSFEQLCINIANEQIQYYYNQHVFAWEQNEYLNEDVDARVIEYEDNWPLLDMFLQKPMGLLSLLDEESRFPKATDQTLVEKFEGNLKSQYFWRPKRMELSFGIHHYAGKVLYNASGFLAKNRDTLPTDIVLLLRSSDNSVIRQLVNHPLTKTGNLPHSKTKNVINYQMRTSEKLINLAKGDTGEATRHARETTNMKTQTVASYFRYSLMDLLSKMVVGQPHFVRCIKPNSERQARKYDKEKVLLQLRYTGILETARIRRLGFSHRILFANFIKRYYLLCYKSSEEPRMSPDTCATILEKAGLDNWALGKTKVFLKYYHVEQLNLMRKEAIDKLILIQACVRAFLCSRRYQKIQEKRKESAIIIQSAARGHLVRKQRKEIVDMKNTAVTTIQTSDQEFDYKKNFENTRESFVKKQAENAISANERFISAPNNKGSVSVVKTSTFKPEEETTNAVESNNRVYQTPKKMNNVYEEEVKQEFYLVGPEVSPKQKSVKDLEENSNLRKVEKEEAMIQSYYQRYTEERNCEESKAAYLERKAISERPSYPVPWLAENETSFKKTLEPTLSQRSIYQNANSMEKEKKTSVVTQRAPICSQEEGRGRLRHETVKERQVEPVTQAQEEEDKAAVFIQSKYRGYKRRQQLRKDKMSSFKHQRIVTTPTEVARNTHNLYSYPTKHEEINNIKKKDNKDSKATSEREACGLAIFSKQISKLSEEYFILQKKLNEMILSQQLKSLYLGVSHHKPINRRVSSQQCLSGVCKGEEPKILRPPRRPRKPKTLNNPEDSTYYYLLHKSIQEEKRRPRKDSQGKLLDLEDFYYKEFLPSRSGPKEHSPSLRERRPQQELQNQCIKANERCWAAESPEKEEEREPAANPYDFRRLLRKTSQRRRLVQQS

As to `COCC(=O)NC/C=C/c1ccc2ncnc(Nc3ccc(Oc4ccc(C)nc4)c(C)c3)c2c1` [CP-724714], the % of control in [1] was determined as 100%.
`CNC(=O)Nc1ccc(-c2nc(N3CC4CCC(C3)O4)c3cnn(C4CCC5(CC4)OCCO5)c3n2)cc1` displayed a % of control in test [2] of 52%.
In [3], `CN(C)CC#Cc1ccc2[nH]c3c(c2c1)-c1nc(N)ncc1CCC3` came in with a % of control of 9.9%.
With `CC[C@@H]1[C@H](F)C(=O)N[C@@H]1COc1nccc2cc(C(N)=O)c(OC)cc12` [ZIMLOVISERTIB], the % of inhibition in test [4] was -26.4%.
On to `CNCCN1CCC(c2cc(CN(C)C(=O)c3cccc(Oc4ccccc4)c3)ccn2)CC1`, for which, in test [5], the % activity is above 90%.
Consider `C=CC(=O)Nc1cccc(C(=O)Nc2ccc(Nc3cc(-c4[nH]c(SC)nc4C)ccn3)cc2)c1`, for which the values for the % of control in [6] (at 1 µM) and in [6] (at 5 µM) were 72% and 65%, respectively.
`O[C@H]1CC[C@H](Nc2ncc3nc(Nc4c(F)cc(F)cc4F)n([C@H]4CCOC4)c3n2)CC1` had a % of control in [7] of 79%.
As for `CC(=O)Nc1cccc(-n2c(=O)n(C3CC3)c(=O)c3c(Nc4ccc(I)cc4F)n(C)c(=O)c(C)c32)c1`, the % of control in test [8] worked out at 114%.
Molecule `COc1cc(N(C)c2ccnc3ccc(C(F)(F)F)cc23)cc(OC)c1OC` registered a % binding in [9] of 78%.
